Key:
coronary vessels = assay: Coronary blood flow change after intracoronary BHT 933; format: in vivo, human; settings: carriers of the GNB3-825T allele, with or without CHD, FIG. 8
Source text: An alpha2 adrenergic agonist (BHT 933) was applied intracoronary in the probands; it leads to contraction of coronary vessels. This effect was quantified via the flow change through these sections of the vessels. […] This means that in carriers of the GNB3-825T allele the intensification of the action of these pharmaceuticals can be predicted.

[1] = target: T1, m2-muscarinergic receptor (Homo sapiens, UniProt P08172); assay: G protein stimulation by carbachol in Sf9 cells expressing m2-muscarinergic receptor, Galphai3, Ggamma5 and Gβ3 or Gβ3s; format: cell-based; settings: in the presence of Gβ3 (so in the source), FIG. 2
T1 sequence (P08172 1-466): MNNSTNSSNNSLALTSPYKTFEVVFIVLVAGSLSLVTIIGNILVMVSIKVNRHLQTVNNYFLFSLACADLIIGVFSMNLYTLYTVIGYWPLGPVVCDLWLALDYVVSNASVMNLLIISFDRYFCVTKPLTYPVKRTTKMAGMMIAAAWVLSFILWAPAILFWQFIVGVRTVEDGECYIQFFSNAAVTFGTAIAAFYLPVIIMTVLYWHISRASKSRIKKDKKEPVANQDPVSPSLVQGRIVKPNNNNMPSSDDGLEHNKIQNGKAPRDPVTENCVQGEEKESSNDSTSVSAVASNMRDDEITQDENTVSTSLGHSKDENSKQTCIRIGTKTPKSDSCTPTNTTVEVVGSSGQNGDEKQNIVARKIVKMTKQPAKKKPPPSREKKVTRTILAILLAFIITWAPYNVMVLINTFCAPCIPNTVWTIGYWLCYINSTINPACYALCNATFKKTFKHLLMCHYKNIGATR
Source text: Here the m2-muscarinergic receptor is expressed together with the G protein subunits Galphai3 and Ggamma5 and either Gβ3 or Gbeta3-s in the Sf9 system.

[2] = test system: beta-adrenergic receptors; assay: Cardiac output after intravenous beta-adrenoceptor blocker; format: in vivo, human; settings: average
[3] = test system: males with penile dysfunction; assay: Erection score and arterial blood flow after prostaglandin E1 injection into the corpus cavernosum; format: in vivo, human; settings: for males with insufficient or absent erection / males with sufficient erection (scores 4 and 5): 10 micrograms, of 87 males
Procedure: When erectile dysfunction is present, prostaglandin E1 is injected into the corpus cavemosum for diagnostic clarification, but also possibly to begin long-term therapy. Prostaglandin E1 activates adenylcyclase, and the subsequent formation of cAMP relaxes smooth vascular muscle cells and thus induces an increased arterial blood flow and thus erection of the penis. The degree of the erection which occurs can be quantified via a point system (score 0-5). Here the scores 4 and 5 correspond to an erection which is sufficient for penetration, while scores<4 can be considered as insufficient.
In 87 males with penile dysfunction, 10 micrograms of prostaglandin E1 were administered with quantification of the erection score. Here the genotype distribution was as follows: Sufficient erection (scores 4 and 5): TT=3; TC=15; CC=16; (frequency of GNB3 825T allele: 30.9%). Insufficient or absent erection: TT=3; TC=16; CC=34; (frequency of the GNB3 825T allele: 20.8%).

[4] = test system: neutrophilic granulocytes; assay: fMLP-stimulated chemotaxis of neutrophilic granulocytes; format: cell-based, human; settings: granulocytes of carriers of the GNB3-825T allele, FIG. 5
Source text: It is therefore used as a test system for measurement of chemotactic reactions of cells which is well known to one skilled in the art. The fMLP receptor, as is known, activates the pertussis toxin-sensitive G proteins. The statement that granulocytes of carriers of the GNB3-825T allele show intensified fMLP-stimulated chemotaxis is in agreement with the fact that chemotaxis of betagamma subunits is mediated.

G protein alpha subunits = assay: 35S-GTPgammaS binding to permeabilized Sf9 cells (Galphai2, Ggamma12, m2 receptor) after carbachol; format: cell-based, human; settings: carbachol 100 microM, versus no beta subunit, FIG. 15
Source text: First of all, it was studied whether G protein heterotrimers which contain Gβ3s-2 are functionally active. As described earlier, the Sf9 insect cell system was used for this purpose (Siffert, W., Rosskopf, D., Siffert, G., Busch, S., Moritz, A., Erbel, R., Sharma, A. M., Ritz, E.; Wichmann, H. E., Jakobs, K. H., and Horsthemke, B. Association of a human G protein β3 subunit variant with hypertension. Nat. Genet. 18(1): 45-48, 1998). The cells were transfected with Galphai2, Ggamma12 and the m2-muscarinergic acetylcholine receptor. The bonding of 35S-GTPgammaS to permeabilized cells was quantified after stimulation with carbachol (100 microM). Here the specific incorporation of 35S-GTPgammaS is a measure of the activation of G protein alpha subunits. […] Thus it is shown at the same time that Gβ3s-2 in spite of the deletion of one propeller blade is functionally active and even leads to intensified activation of G proteins. […] Galphai2, Galphai3, G-1, and G-2 are not mutated. Circ. Res. 79:974-983, 1996. Siffert, W., Rosskopf, D., Moritz, A., Wieland, T., Kaldenberg-Stasch, S., Kettler, N., Hartung, K., Bechmann, S., and Jakobs, K. H. Enhanced G protein activation in immortalized lymphoblasts from patients with essential hypertension. J. Clin. Invest. 96:759-766, 1995. Wirchow, S., Ansorge, N., Ruebben, H., Wiffert, G., and Siffert, W. Enhanced fMLP-stimulated chemotaxis in human neutrophils from individuals carrying out the G protein beta3 subunit 825T-allele. FEBS Lett. 436(2): 155-158, 1998).

[5] = test system: phospholipase Cβ3 (PLCbeta3); assay: Inositol phosphate formation in COS-7 cells transfected with PLCβ3, Ggamma12 and Gβ subunits; format: cell-based; settings: betagamma dimers with Ggamma12, FIG. 16
Source text: It is generally known that betagamma subunits of heterotrimeric G proteins can stimulate different isoforms of the phospholipase Cbeta. This enzyme splits phospholipids, for example phosphatdylinositol-4,5-bisphosphate into the “second messenger” molecules inositol-1,4,5 triphosphate (IP3) and 1,2-diacylglycerol (DAG), IP3 causes release of calcium ions from intracellular reservoirs, while DAG activates different isoforms of the protein kinase C. Activation of phospholipase C is thus an important step in cell activation. It was examined whether betagamma subunits which contain Gβ3s-2 can activate the phospholipase Cβ3 (PLCbeta3). To do this the COS-7 cell system was used which is often used in the generally accessible literature for transient transfection of proteins. These cells were transfected with the PLCβ3, Ggamma12 and different Gβ subunits. The cells were pretreated with radioactively tagged [3H] inositol. The formation of inositol phosphates (IP) was quantified using standard methods, the amount of the 1P formed constituting a measure of the activation of the PLC. As is shown in FIG. 16, betagamma dimers which contain Gβ3, Gβ3s, or Gβ3s-2 can activate PLCβ33. Likewise, activation of PLCβ3 after transfection of Gβ1 is shown for comparison.

G protein alpha-subunits = assay: [35S]GTPgammaS incorporation after Mas-7 stimulation, COS-7 transfection system; format: cell-based, human; settings: COS-7 cells, FIG. 1
Source text: The subject matter of this invention is based on the finding that the Gβ3s subunit leads to increased activation capacity of G proteins. The increased activation capacity of G proteins was detected via transfection of the corresponding cDNAs and the expression of Gβ3 and Gβ3s in the COS-7 transfection system which is well known to one skilled in the art. […] To quantify the activation capacity of G proteins, here the incorporation of radioactively tagged [35S]GTPgammaS into G protein alpha-subunits after stimulation with the peptide mastoparan-7 (Mas-7) was measured.

## CCN1CCc2nc(N)oc2CC1 [BHT 933]
Coronary vessels
  reduction of coronary blood flow: intensified reduction of coronary blood flow

## C[N+](C)(C)CCOC(N)=O [carbachol]
[1]
  potency and efficiency of the agonist for stimulation of G proteins: increased potency and increased efficiency

## CC(C)NCC(O)COc1cccc2ccccc12 (stereo not shown) [propanolol]
[2]; homozygotic C825 carriers
  decrease of cardiac output: 3 mL
[2]; homozygotic and heterozygotic 828T (so in the source) allele carriers
  decrease of cardiac output: 12 mL

## CCCCC[C@H](O)/C=C/[C@H]1[C@H](O)CC(=O)[C@@H]1CCCCCCC(=O)O [prostaglandin E1]
[3]; genotype CC
  males with insufficient or absent erection: 34
  males with sufficient erection (scores 4 and 5): 16
[3]; genotype TC
  males with insufficient or absent erection: 16
  males with sufficient erection (scores 4 and 5): 15
[3]; genotype TT
  males with insufficient or absent erection: 3
  males with sufficient erection (scores 4 and 5): 3
[3]; after injection, homozygotic C825 allele carriers
  increase of the arterial blood flow (doppler sonography): reduced increase of the arterial blood flow

## fMLP
[4]
  chemotaxis: increased chemotaxis

B1: Gβ3: Gβ3-subunit of the human G protein (protein, UniProt P16520 1-340, looked up)
Guanine nucleotide-binding …: MGEMEQLRQEAEQLKKQIADARKACADVTLAELVSGLEVVGRVQMRTRRTLRGHLAKIYAMHWATDSKLLVSASQDGKLIVWDSYTTNKVHAIPLRSSWVMTCAYAPSGNFVACGGLDNMCSIYNLKSREGNVKVSRELSAHTGYLSCCRFLDDNNIVTSSGDTTCALWDIETGQQKTVFVGHTGDCMSLAVSPDFNLFISGACDASAKLWDVREGTCRQTFTGHESDINAICFFPNGEAICTGSDDASCRLFDLRADQELICFSHESIICGITSVAFSLSGRLLFAGYDDFNCNVWDSMKSERVGILSGHDNRVSCLGVTADGMAVATGSWDSFLKIWN
G protein alpha subunits
  G protein activation (specific 35S-GTPgammaS incorporation): clearly intensified
[5]
  activation of PLCβ3 (inositol phosphate formation): can activate

B2: Gβ3s: alternative splice product of human GNB3 with loss of 41 amino acids (protein, listed as Homo sapiens)
chain: MGEMEQLRQEAEQLKKQIADARKACADVTLAELVSGLEVVGRVQMRTRRTLRGHLAKIYAMHWATDSKLLVSASQDGKLIVWDSYTTNKVHAIPLRSSWVMTCAYAPSGNFVACGGLDNMCSIYNLKSREGNVKVSRELSAHTGYLSCCRFLDDNNIVTSSGDTTCALWDIETGQQKTVFVGHTGDCMSLAVSPDFNLFISGACDASAKLWDVREGTCRQTFTGQESDINAICFFSLSGRLLFAGYDDFNCNVWDSMKSERVGILSGHDNRVSCLGVTADGMAVATGSWDSFLKIWN
G protein alpha-subunits
  activation capacity of G proteins ([35S]GTPgammaS incorporation): clearly increased compared to Gβ3
G protein alpha subunits
  G protein activation (specific 35S-GTPgammaS incorporation): more potent than Gβ3
[5]
  activation of PLCβ3 (inositol phosphate formation): can activate

B3: Gβ3s-2: new splice variant of the Gβ3 subunit of human G protein, deletion of 43 amino acids, SEQ ID NO:4 (protein, listed as Homo sapiens)
chain: B2 chain
G protein alpha subunits
  G protein activation (specific 35S-GTPgammaS incorporation): strongest potentiation
[5]
  activation of PLCβ3 (inositol phosphate formation): can activate
